{"source": "patent US20240391940A1", "about": "“FUSED RING-CONTAINING COMPOUND, APPLICATION THEREOF, AND COMPOSITION CONTAINING SAME” (GenEros Biopharma Ltd., priority 2020, published 2024)", "key": {"[1]": {"system": "adjuvant arthritis (AIA) rat model", "assay": "Rat AIA (adjuvant arthritis) model", "assay_type": "in vivo, Lewis rats", "conditions": "for Hind paw volume / body weight / clinical scores: 10 mg/kg daily from day 9, individual animals, 10 mg/kg"}, "female BALB/c mice": {"system": "female BALB/c mice", "assay": "Toxicity, multiple administrations for 14 days in mice", "assay_type": "in vivo", "conditions": "female BALB/c mice", "protocol": "• Part I: Single administration. A total of 6 mice were used. They were randomly divided into 2 groups: the vehicle control and GEN1-284s (1000 mg/kg), dosed once by oral gavage and observed for 6 days, and changes in body weight and activities were recorded. • Part II: Multiple administrations. This experiment used a total of 6 mice. They were divided into two groups of 3: a GEN1-284s-1000 mg/kg group and a GEN1-284s-300 mg/kg group, and were intragastrically given GEN1-284s for 14 consecutive days at 200 μL each. The state and survival of the mice were observed every day, and their body weights were recorded. Two mice died 2 h after GEN1-284s-1000 mg/kg administration. The dose was changed to 600 mg/kg, and the experiment was continued.\nThis experiment used a total of 6 mice. They were divided into two groups of 3: a GEN1-284s-1000 mg/kg group and a GEN1-284s-300 mg/kg group, and were intragastrically given GEN1-284s for 14 consecutive days at 200 μL each. The state and survival of the mice were observed every day, and their body weights were recorded. Two mice died 2 h after GEN1-284s-1000 mg/kg administration. The dose was changed to 600 mg/kg, and the experiment was continued.\nEach mouse was intragastrically administered GEN1-284s for 14 consecutive days in a volume of 200 μL/20 g. The state and survival of the mice were observed every day, and their body weights were recorded. Two mice died 2 h after GEN1-284s-1000 mg/kg administration. The dose was changed to 600 mg/kg, and the experiment was continued.\nChanges in body weight and survival of the mice were observed during 6 days after the single administration, and changes in body weight and the survival of the mice were observed during 14 consecutive days of high-dose GEN1-284s administration."}, "[2]": {"system": "Apoe KO mouse atherosclerosis model", "assay": "Atherosclerosis model (Apoe KO mice, high-fat diet): blood lipid tests TCHO, TG, LDL-C, HDL-C", "assay_type": "in vivo, C57BL/6 Apoe KO mice", "conditions": "Apoe KO mice, high-fat diet; GEN1-284s 60 mpk QD oral, 8 weeks", "protocol": "Method: Apoe KO mice were tested for basal blood lipid levels and divided into a normal control group and a high-fat group. After 8 weeks of housing, the mice from the high-fat group were divided into 4 groups of about 8: a normal diet group (Chow), a high-fat diet model group (HFD), an Atorvastatin positive group (HFD+atorvastatin 5 mpk, QD), and a GEN1-284s group (284-60 mpk, QD). Oral administration was performed for 8 consecutive weeks, and the effect of the compound on the following indicators in Apoe KO mice was observed: 4 blood lipid tests (TC, TG, HDL-C and LDL-C), aortic plaque En-face staining, and pathological oil red staining of the cardiac outflow tract.\nMice from the groups except for the normal diet control group (Chow) were fed with high-fat feed every day for […]. From week 9, each group was orally administered solvent or a corresponding test compound, and body weight data were recorded every day for 8 consecutive weeks. After the first 8 weeks' high-fat diet, blood samples were taken and centrifuged to separate serum, and the serum was tested for blood lipid levels (TCHO, TG, LDL-C and HDL-C). The mice were randomly grouped according to the TCHO results and body weight. During the subsequent 8 weeks of administration, blood lipid tests (TCHO, TG, LDL-C and HDL-C) were run once every 4 weeks.\nMice were fasted overnight, and blood (150 μL) was collected via mandibular blood sampling or eye ball removal (for endpoint only) and left at room temperature for 2 h. The blood was centrifuged at 4° C. at 7000 rpm for 10 min, and serum was pipetted, quick-frozen in dry ice and then stored at −80° C. before analysis. The serum was tested for the biochemical indicators TCHO, TG, LDL-C and HDL-C using kits and a microplate reader."}, "[3]": {"system": "LPS-induced production of TNF-α", "assay": "LPS-induced TNF-α production in mice (plasma ELISA)", "assay_type": "in vivo", "conditions": "Balb/c mice; GEN1-284s 15 mpk intragastric, LPS 1 mpk i.p. 0.5 h after administration, plasma 2 h after LPS", "protocol": "Materials and method: A total of 18 mice were used in this experiment. The mice were divided into a MOCK group (n=6), a dexamethasone group (n=6), and a GEN1-284s 15 mpk group (n=6). LPS (1 mpk) was intraperitoneally injected 0.5 h after administration. The mice were sacrificed 2 h after the LPS injection, and blood samples were taken. The blood samples were left in EDTA-K2 anticoagulant tubes at room temperature for 20 min and centrifuged at 8000 rpm for 10 min. The plasma was separated and cryopreserved at −80° C. before analysis.\nLPS (1 mpk) was intraperitoneally injected 0.5 h after administration. The mice were sacrificed 2 h after the LPS injection, and blood samples were taken. The blood samples were left in EDTA-K2 anticoagulant tubes at room temperature for 20 min and centrifuged at 8000 rpm for 10 min. The plasma was separated and cryopreserved at −80° C. before analysis.\nThe mice were tested for TNF-α level with ELISA kits, and the inhibitory effect of GEN1-284s on the TNF-α level was evaluated.\nAccording to the instructions for use, a standard curve formula (y=0.0038x+0.1206, R^2=0.9956) was obtained and can be used to calculate detection values."}, "[4]": {"conditions": "300 mg/kg intragastric for 14 consecutive days"}}, "note": "“And” between values parts separate entries of the source, which are not always exact repeats. Identical values can stand only once."}
{"smiles": "O=C(Cc1ccc2ncccc2c1)N1CCC(n2c(=O)[nH]c3cccc(C(F)(F)F)c32)CC1", "note": "[GEN1-117, 1-(1-(2-(Quinolin-6-yl)acetyl)piperidin-4-yl)-7-(trifluoromethyl)-1H-benzo[d]imidazol-2(3H)-one]", "values": [{"measurement": "Maximum arthritis index score compared to the control rats", "setting": "[1]", "value": "can effectively relieve the AIA rat arthritis disease model"}, {"measurement": "Body weight change", "setting": "[1]; AIA rats, GEN1-117 intervention group", "value": "gained significant weight"}, {"measurement": "Increase in hind paw volume and clinical score", "setting": "[1]; AIA rats, daily intraperitoneal injection", "value": "dose-dependently inhibited"}, {"measurement": "Hind paw volume", "setting": "[1]; AIA rats, day 9", "value": "1.23 and 1.41 and 1.46 and 1.38 (2×) and 1.18 and 1.15 and 1.31 and 1.35 and 1.12 and 1.68 and 1.27"}, {"measurement": "body weight", "setting": "[1]; AIA rats, day 9", "value": "166 g and 154 g (2×) and 153 g (2×) and 158 g and 145 g and 169 g (2×) and 175 g and 168 g and 164 g"}, {"measurement": "clinical scores", "setting": "[1]; AIA rats, day 9", "value": "0 (9×) and 0.17 and 1 (2×)"}, {"measurement": "body weight", "setting": "[1]; AIA rats, day 10", "value": "156 g and 151 g and 155 g and 152 g (2×) and 143 g and 135 g and 159 g and 165 g and 158 g (3×)"}, {"measurement": "Hind paw volume", "setting": "[1]; AIA rats, day 11", "value": "1.19 and 1.3 (2×) and 1.65 and 0.97 and 1.17 and 1.18 (2×) and 1.13 and 1.08 and 1.92 and 1.23"}, {"measurement": "body weight", "setting": "[1]; AIA rats, day 11", "value": "156 g and 150 g and 153 g and 152 g and 140 g and 132 g and 155 g (2×) and 164 g and 158 g and 157 g and 146 g"}, {"measurement": "clinical scores", "setting": "[1]; AIA rats, day 11", "value": "0 (8×) and 0.75 and 2.5 and 1.5 and 0.5"}, {"measurement": "body weight", "setting": "[1]; AIA rats, day 12", "value": "158 g and 153 g and 154 g and 155 g and 143 g and 137 g and 159 g and 164 g and 160 g and 156 g and 162 g and 148 g"}, {"measurement": "Hind paw volume", "setting": "[1]; AIA rats, day 13", "value": "1.25 (2×) and 1.93 and 2.35 and 1.08 and 1.26 (2×) and 0.84 and 1.38 and 1.03 and 2.32 and 1.28"}, {"measurement": "body weight", "setting": "[1]; AIA rats, day 13", "value": "157 g and 158 g and 155 g and 159 g and 145 g and 143 g and 161 g (2×) and 167 g and 165 g and 169 g and 149 g"}, {"measurement": "clinical scores", "setting": "[1]; AIA rats, day 13", "value": "0 (7×) and 1 (2×) and 3 and 0.17 and 1.67"}, {"measurement": "body weight", "setting": "[1]; AIA rats, day 14", "value": "164 g (2×) and 160 g and 155 g and 166 g and 151 g and 150 g (2×) and 170 g (2×) and 173 g and 172 g"}, {"measurement": "Hind paw volume", "setting": "[1]; AIA rats, day 15", "value": "1.27 (2×) and 2.03 and 2.2 and 1.04 and 1.1 and 1.38 and 1.08 and 1.11 and 1.26 and 2.93 and 1.66"}, {"measurement": "body weight", "setting": "[1]; AIA rats, day 15", "value": "162 g and 159 g and 151 g (2×) and 169 g and 154 g and 176 g and 174 g (2×) and 170 g and 175 g and 149 g"}, {"measurement": "clinical scores", "setting": "[1]; AIA rats, day 15", "value": "0 (4×) and 2 (2×) and 5.5 and 0.17 (4×) and 3.5"}, {"measurement": "body weight", "setting": "[1]; AIA rats, day 16", "value": "165 g and 164 g and 158 g and 135 g and 156 g and 155 g and 180 g and 177 g and 179 g and 175 g and 176 g and 147 g"}, {"measurement": "body weight", "setting": "[1]; AIA rats, day 17", "value": "169 g and 170 g and 152 g and 181 g"}, {"measurement": "clinical scores", "setting": "[1]; AIA rats, day 17", "value": "0 (8×) and 1.83 (2×) and 5 and 3.5"}, {"measurement": "Hind paw volume", "setting": "[1]; AIA rats, day 17, in mL (unit assumed)", "value": "1.14 and 2.03 and 1.62 and 0.88 and 1.12 and 1.28 and 1.06 and 1.41 and 1.09 and 1.03 and 2.61 and 1.88"}, {"measurement": "clinical scores", "setting": "[1]; AIA rats, day 19", "value": "0 (7×) and 2.5 and 4 and 0.5 and 2 and 4.25"}, {"measurement": "Hind paw volume", "setting": "[1]; AIA rats, day 19, in mL (unit assumed)", "value": "1.42 and 3.18 and 2.26 and 1.39 and 1.25 and 1.37 and 1.26 and 1.65 and 1.28 and 1.38 and 2.43 and 2.78"}, {"measurement": "Hind paw volume", "setting": "[1]; AIA rats, day 21", "value": "1 and 3.15 and 1.95 and 1.08 (2×) and 0.86 and 1.09 and 1.33 and 1.04 and 1.14 and 2.65 and 2.14"}, {"measurement": "clinical scores", "setting": "[1]; AIA rats, day 21", "value": "0 (7×) and 2.67 and 5.33 and 0.5 and 2 and 4.17"}, {"measurement": "Hind paw volume", "setting": "[1]; AIA rats, day 23", "value": "0.99 and 3.36 and 2.21 and 1.25 and 0.88 and 0.93 and 0.96 and 1.26 and 1.08 (2×) and 2.87 and 1.89"}, {"measurement": "clinical scores", "setting": "[1]; AIA rats, day 23", "value": "0 (7×) and 3 and 4 (2×) and 0.5 and 2.5"}, {"measurement": "Clinical scores compared to the control rats", "setting": "[1]; days 13-23", "value": "significant reductions in clinical scores"}, {"measurement": "Hind paw volume compared to the control rats", "setting": "[1]; days 17-23", "value": "significantly decreased"}]}
{"smiles": "O=C(Cc1ccc2ncccc2c1)N1CCC(n2c(=O)n(COP(=O)([O-])[O-])c3cccc(C(F)(F)F)c32)CC1.[Na+].[Na+]", "note": "[GEN1-284 salt, (2-Oxo-3-(1-(2-(quinolin-6-yl)acetyl)piperidin-4-yl)-4-(trifluoromethyl)-2,3-dihydro-1H-benzo[d]imidazol-1-yl)methyl disodium phosphate]", "values": [{"measurement": "Change in body weight", "setting": "female BALB/c mice; [4]", "value": "no significant change in body weight"}, {"measurement": "Survival", "setting": "female BALB/c mice; [4]", "value": "did not affect the survival of the mice"}, {"measurement": "Number of mice that died", "setting": "female BALB/c mice; 600 mg/kg group, Day 4", "value": 1, "unit": "mouse"}, {"measurement": "Number of mice that died 2 h after administration", "setting": "female BALB/c mice; 1000 mg/kg intragastric, day 1, group of 3", "value": 2, "unit": "mice"}, {"measurement": "Time within which all mice died", "setting": "female BALB/c mice; continuous administration of 600 mg/kg", "value": "≤ 5", "unit": "days"}, {"measurement": "Effect on dyslipidemia (TCHO, TG, HDL-C and LDL-C)", "setting": "[2]", "value": "partially ameliorate dyslipidemia"}, {"measurement": "Inhibition rate against LPS-induced TNF-α", "setting": "[3]", "value": 36, "unit": "%"}]}
